For 1 molecule, melting point results are on record in US11021500B2, “Process for preparing optically active 2,3-bisphosphino-substituted quinoxalines” (Nippon Chemical Industrial Co., Ltd., priority 2017, dated 2021).

For orientation: melting point means the temperature of the solid-liquid transition.

`C[P@@](c1nc2ccccc2nc1[P@](C)C(C)(C)C)C(C)(C)C` [Compound (a3), (R,R)-2,3-bis(tert-butylmethylphosphino)quinoxaline] gave a melting point of 102 to 103 °C.
